In series [1] the test system is paternal Ube3a-YFP. In words: Paternal Ube3a-YFP unsilencing, fluorescence immunostaining and high-content imaging in primary cortical neurons (Ube3a^m+/pYFP). The format is cell-based, mouse. Particulars: for neurons expressing paternal Ube3a-YFP above threshold: 0.3 μM, n = 4 wells, YFP-positive cells / total Hoechst-positive cells. As for the experimental part:
We followed the protocols for fluorescent immunostaining and high-content imaging of cortical neurons as previously described. Briefly, 72 h after drug treatment, the cells were fixed with 4% paraformaldehyde at room temperature for 15 min. After rinsing with phosphate-buffered saline (PBS) three times, the cells were permeabilized with 1% Triton-X 100 in PBS, followed by blocking with 5% NGS and 0.1% Triton-X 100 in PBS at room temperature for 30 min. After blocking, the cells were incubated with primary antibody, rabbit anti-GFP (1:1000, Novus Biologicals), at 4 °C overnight. The cells were then briefly rinsed with PBS followed by incubation with secondary antibody, goat anti-rabbit Alexa Fluor 488 (1:200, Thermo Fisher/Invitrogen), at room temperature. One hour after secondary antibody incubation, the cells were rinsed with PBS and fluorescent images were acquired using a BD Pathway 855 bioimager. The acquired images were processed by CellProfiler to count the number of positive cells and measure fluorescent intensity (Additional file 2). To determine the percentage of neurons expressing paternal Ube3a-YFP, we counted the total number of cells (Hoechst) and YFP-positive cells, and the number of YFP-positive cells was divided by the total number of cells. Fluorescence intensity was measured in neurons expressing unsilenced paternal Ube3a-YFP and normalized to vehicle control.

Series [2] can be described thus: Cytotoxicity test (Cyto Tox-Glo) in cultured cortical neurons. Particulars: mouse, primary cultured cortical neurons from E14.5 embryos.
In series [3] the test system is paternal Ube3a-YFP. The series is described as follows: Western blot of paternal UBE3A-YFP in cultured neurons from Ube3a^m+/pYFP mice. The format is cell-based, mouse. Particulars: 0.3 μM, 72 h, n = 3/group. The method, then: (§1) We followed the same procedures of Western blot analysis as previously described. In brief, 72 h after drug treatment, we collected the cultured neurons from 6-well plates and extracted total protein with protein extraction buffer. Bradford assay was performed to measure protein concentration, and 30 μg of total protein was loaded for Bis-polyacrylamide gel electrophoresis (Bio-Rad). Electrophoresed proteins were transferred to nitrocellulose membrane (0.45 μm, Bio-Rad). The membranes were blocked with 5% non-fat milk in TBS-T at room temperature for 30 min followed by overnight 4 °C incubation with primary antibodies (rabbit anti-GFP, 1:1000, Novus Biologicals; rabbit anti-Ube3a, 1:1000, Bethyl Lab; mouse anti-actin; 1:5000, Sigma). The next day, the membranes were rinsed with TBS-T three times and incubated with HPR-conjugated secondary antibodies for 1 h at room temperature (goat anti-rabbit, 1:1000, Vector Lab or goat anti-mouse, 1:1000, Vector Lab). Following secondary antibody incubation, the membranes were rinsed with TBS-T at room temperature for 1 h (4–5 times) and ECL substrates (Bio-Rad) were used to visualize immunostaining using an Amersham Imager 600 (AI600, GE Life Sciences).
A general note: Immunoblotting shows a protein as a band on a membrane.

Another series has as its system paternal UBE3A. The series is described as follows: Western blot of paternal UBE3A in cultured neurons from AS model mice (Ube3a^m−/p+). The class given is cell-based, mouse. The following applies: 0.3 μM, 72 h, vs DMSO, n = 3/group. As for the experimental part:
as §1

For the next series, the system named is Top1. The following applies: cited from earlier work.
On the set-up of series [4]: method as in PMID 27169793. Particulars: at the concentrations examined; cited from earlier work.
Details of series [5]: method as in earlier work. The following applies: cited from earlier work.
The next series relates to ABCG2. On the set-up: method as in PMID 17974983. The following applies: cited from earlier work.
The next series relates to MDR1. Also noted: method as in PMID 17974983. Particulars: cited from earlier work.
The next series can be described thus: in vitro. The following applies: mouse.
Where [6] appears, read: Table S1, nine analogues, unsilencing of paternal UBE3A-YFP, 72 h.
The mark [7] stands for this setting: Table S1, nine analogues, unsilencing of paternal UBE3A-YFP, 72 h, 'ambiguous' = limited effective dose range, read-out: EC50.
[8] abbreviates: Mus musculus, Primary cortical neuron, unsilencing of paternal UBE3A-YFP, drug 72 h from DIV 7, n = 4/group, estimated from Fig. 4, read-out: EC50.
Setting [9] is: maximum response of unsilencing paternal Ube3a-YFP, fluorescence intensity normalized to vehicle control, 72 h, estimated from Fig. 4.

Like-named read-outs stand apart in the source and are kept apart here.

Regarding `COc1cc2c3c(n(C[C@H](O)CO)c(=O)c2cc1OC)-c1cc2c(cc1C3=O)OCO2` [DB-IV-50], the Emax with paternal Ube3a-YFP [1] (setting [6]) is reported as 1.39 (±0.07). For the same compound, the EC50 (as a rule, the concentration needed to bring the measured effect to its halfway point) in the series with paternal Ube3a-YFP [1] (setting [7]) was found to be 121 nM.

In the case of `COc1cc2c3c(n(C[C@@H](O)CO)c(=O)c2cc1OC)-c1cc2c(cc1C3=O)OCO2` [DB-IV-58], the “neurons expressing paternal Ube3a-YFP above threshold” value in the series with paternal Ube3a-YFP [1] (72 h) was 17.7 ± 3.87%. Also, in the series on paternal Ube3a-YFP [1] (setting [8]), the concentration for a half-maximal effect (EC50) was 31 nM. For the same compound, the Emax with paternal Ube3a-YFP [1] (setting [9]) is on record as 1.45 (± 0.12). In series [2], the CC50 at 72 h amounted to 2010 nM. Besides, in the series with paternal Ube3a-YFP [3], the “paternal UBE3A-YFP protein level (Western blot, normalized to actin)” value was “led to paternal UBE3A-YFP protein production”. Moreover, in the series with paternal UBE3A, the “paternal UBE3A protein level (Western blot, normalized to actin)” value is listed as “high level of paternal UBE3A protein”.

In the case of `O=C1c2ccccc2-c2c1c1ccc([N+](=O)[O-])cc1c(=O)n2CC(O)C(O)C(O)CO` (centres unmarked) [DB-V-37], in the series on paternal Ube3a-YFP [1] (72 h), the “neurons expressing paternal Ube3a-YFP above threshold” value came out at 14.1 ± 3.55%. In addition, the 50% effective concentration (EC50) in the series on paternal Ube3a-YFP [1] (setting [8]) is 29.9 nM. Also, the Emax with paternal Ube3a-YFP [1] (setting [9]) is reported as 1.48 (± 0.08). This compound also displayed a CC50 at 72 h in series [2] of 2020 nM. Besides, in the series with paternal Ube3a-YFP [3], the “paternal UBE3A-YFP protein level (Western blot, normalized to actin)” value is recorded as “led to paternal UBE3A-YFP protein production”. Also, in the series with paternal UBE3A, the “paternal UBE3A protein level (Western blot, normalized to actin)” value is “high level of paternal UBE3A protein”.

Consider `COc1cc2c3c(n(CCCn4ccnc4)c(=O)c2cc1OC)-c1cc2c(cc1C3=O)OCO2` [Indimitecan, indimitecan], for which, in the series with paternal Ube3a-YFP [1] (72 h), the “neurons expressing paternal Ube3a-YFP above threshold” value is 23.9 ± 1.72%. Further, the EC50 with paternal Ube3a-YFP [1] (setting [8]) was 7.47 nM. Also, the Emax with paternal Ube3a-YFP [1] (setting [9]) is recorded as 1.47 (± 0.10). Moreover, the CC50 at 72 h in [2] was determined as 789 nM. Moreover, the “paternal UBE3A-YFP protein level (Western blot, normalized to actin)” value in the series with paternal Ube3a-YFP [3] is listed as “led to paternal UBE3A-YFP protein production”. Moreover, in the series with paternal UBE3A, the “paternal UBE3A protein level (Western blot, normalized to actin)” value is “high level of paternal UBE3A protein”. In the series on Top1, the “inhibition of Top1 enzymatic activity” value was about 100%.

As for `COc1cc2c3c(n(CCCN4CCOCC4)c(=O)c2cc1OC)-c1cc2c(cc1C3=O)OCO2` [Indotecan, indotecan], the “tolerability in a clinical population” value in series [4] is given as “well tolerated”. Besides, in [5], the CNS penetration entry is “favorable CNS penetration”. The “substrate for transporter ABCG2” value with ABCG2 is “not a substrate”. For the same compound, the “neurons expressing paternal Ube3a-YFP above threshold” value with paternal Ube3a-YFP [1] (72 h) came out at 37.1 ± 5.19%. The EC50 in the series with paternal Ube3a-YFP [1] (Mus musculus, Primary cortical neuron, read-out: EC50 to produce Ube3a unsilencing) was about 26 nM; in the series on paternal Ube3a-YFP [1] (setting [8]), 25.6 nM. Also, the Emax in the series on paternal Ube3a-YFP [1] (setting [9]) is recorded as 1.78 (± 0.13). For the same compound, the “substrate for transporter MDR1” value in the series on MDR1 was “not a substrate”. In the series with paternal Ube3a-YFP [3], the “paternal UBE3A-YFP protein level (Western blot, normalized to actin)” value is on record as “led to paternal UBE3A-YFP protein production”. In the series with paternal UBE3A, the “paternal UBE3A protein level (Western blot, normalized to actin)” value was “high level of paternal UBE3A protein”. Moreover, the CC50 at 72 h in the series “in vitro” stood at 2010 nM. Besides, the “inhibition of Top1 enzymatic activity” value with Top1 is given as about 100%.

For the compound `C=CCn1c2c(c3cc(OC)c(OC)cc3c1=O)C(=O)c1cc3c(cc1-2)OCO3` [MJ-II-66A], in the series with paternal Ube3a-YFP [1] (setting [6]), the Emax is on record as 1.20 (±0.05). In the series on paternal Ube3a-YFP [1] (setting [7]), the 50% effective concentration (EC50) was about 26.8 nM. In addition, the “range of doses that produce Ube3a-YFP unsilencing before toxicities” value in the series with paternal Ube3a-YFP [1] (dose-response 1E-10 to 3E-5 M, 72 h) was “very limited range of doses”.

With `COc1cc2c3c(n(CCCO)c(=O)c2cc1OC)-c1cc2c(cc1C3=O)OCO2` [MNR-IV-64], the Emax in the series on paternal Ube3a-YFP [1] (setting [6]) is reported as 1.37 (±0.09). For the same compound, the concentration giving a half-maximal response (EC50) with paternal Ube3a-YFP [1] (setting [7]) is 634 nM.

Take `CC[C@@]1(O)C(=O)OCc2c1cc1n(c2=O)Cc2cc3c(CN(C)C)c(O)ccc3nc2-1` [Topotecan]: the “neurons expressing paternal Ube3a-YFP above threshold” value in the series on paternal Ube3a-YFP [1] (72 h) came to 33.0 ± 2.56%. Besides, the EC50 in the series on paternal Ube3a-YFP [1] (setting [8]) is 30.4 nM. Also, the Emax with paternal Ube3a-YFP [1] (setting [9]) was 1.51 (± 0.11). Further, in the series with paternal Ube3a-YFP [3], the “paternal UBE3A-YFP protein level (Western blot, normalized to actin)” value is listed as “led to paternal UBE3A-YFP protein production”. Further, the “paternal UBE3A protein level (Western blot, normalized to actin)” value in the series on paternal UBE3A is given as “high level of paternal UBE3A protein”. In the series “in vitro”, this compound yielded a CC50 at 72 h of 2300 nM.

Source of the values: publication PMC6098585, “Characterization and structure-activity relationships of indenoisoquinoline-derived topoisomerase I inhibitors in unsilencing the dormant Ube3a gene associated with Angelman syndrome” (Molecular Autism, 2018).
